The target of the assay is human ATX (autotaxin, ENPP2), His-tagged (Homo sapiens (Human), UniProt Q13822). In words: Human ATX enzyme inhibition assay (fluorescence quenching, MR121 substrate). The class given is biochemical. Particulars: 30 nM ATX, 1 μM MR121 substrate, 30° C., pH 8.0. How it is done:
Human ATX Enzyme Inhibition Assay
ATX inhibition was measured by a fluorescence quenching assay using a specifically labeled substrate analogue (MR121 substrate). To obtain this MR121 substrate, BOC and TBS protected 6-amino-hexanoic acid (R)-3-({2-[3-(2-{2-[2-(2-amino-ethoxy)-ethoxy]-ethoxy}-ethoxy)-propionylamino]-ethoxy}-hydroxy-phosphoryloxy)-2-hydroxy-propyl ester (Ferguson et al., Org. Lett. 2006, 8, 2023) was labeled with MR121 fluorophore [CAS RN 185308-24-1], 1-(3-carboxypropyl)-11-ethyl-1,2,3,4,8,9,10,11-octahydro-dipyrido[3,2-b:2′,3′-i]phenoxazin-13-ium) on the free amine of the ethanolamine side and then, after deprotection, subsequently with tryptophan on the side of the aminohexanoic acid.
Assay working solutions were made as follows:
Assay buffer (50 mM Tris-HCl, 140 mM NaCl, 5 mM KCl, 1 mM CaCl2, 1 mM MgCl2, 0.01% Triton-X-100, pH 8.0;
ATX solution: ATX (human His-tagged) stock solution (1.08 mg/mL in 20 mM bicine, pH 8.5, 0.15 M NaCl, 10% glycerol, 0.3% CHAPS, 0.02% NaN3), diluted to 1.4-2.5× final concentration in assay buffer;
MR121 substrate solution: MR121 substrate stock solution (800 μM MR121 substrate in DMSO), diluted to 2-5× final concentration in assay buffer.
Test compounds (10 mM stock in DMSO, 8 μL) were obtained in 384 well sample plates (Corning Costar #3655) and diluted with 8 μL DMSO. Row-wise serial dilutions were made by transferring 8 μL cpd solution to the next row up to row O. The compound and control solutions were mixed five times and 2 μL were transferred to 384 well assay plates (Corning Costar #3702). Then, 15 μL of 41.7 nM ATX solution was added (30 nM final concentration), mixed five times and then incubated for 15 minutes at 30° C. 10 μL of MR121 substrate solution was added (1 μM final concentration), mixed 30 times and then incubated for 15 minutes at 30° C.
`COC(=O)CCN(Cc1ccc(Cl)c(Cl)c1)C(=O)Cn1cnc2ccc(N3CCN(C(C)=O)CC3)cc2c1=O` [Example 53, Methyl 3-[[2-[6-(4-acetylpiperazin-1-yl)-4-oxoquinazolin-3-yl]acetyl]-[(3,4-dichlorophenyl)methyl]amino]propanoate] yielded an IC50 of 18 nM. This counts as double-digit nanomolar. In turn, `CC(=O)N1CCN(c2ccc3ncn(CC(=O)N(CCC(=O)O)Cc4ccc(Cl)c(Cl)c4)c(=O)c3c2)CC1` [Example 54, 3-[[2-[6-(4-Acetylpiperazin-1-yl)-4-oxoquinazolin-3-yl]acetyl]-[(3,4-dichlorophenyl)methyl]amino]propanoic acid] yielded an IC50 of 831 nM.

`CNC(=O)CCN(Cc1ccc(Cl)c(Cl)c1)C(=O)Cn1cnc2ccc(N3CCN(C(C)=O)CC3)cc2c1=O` [Example 55, 3-[[2-[6-(4-Acetylpiperazin-1-yl)-4-oxoquinazolin-3-yl]acetyl]-[(3,4-dichlorophenyl)methyl]amino]-N-methylpropanamide]: the IC50 turned out to be 38 nM.

Consider `CC(=O)N1CCN(c2ccc3ncn(CC(=O)N(C)Cc4ccc(C#N)c(Cl)c4)c(=O)c3c2)CC1` [Example 56, 2-[6-(4-Acetylpiperazin-1-yl)-4-oxoquinazolin-3-yl]-N-[(3-chloro-4-cyanophenyl)methyl]-N-methylacetamide], for which half-maximal inhibition (IC50) required 8 nM. The molecule `CC(=O)N1CCN(c2ccc3ncn(CC(=O)N(C)Cc4ccc(Cl)c(C#N)c4)c(=O)c3c2)CC1` [Example 57, 2-[6-(4-Acetylpiperazin-1-yl)-4-oxoquinazolin-3-yl]-N-[(4-chloro-3-cyanophenyl)methyl]-N-methylacetamide] yielded a concentration for half-maximal inhibition (IC50) of 8 nM. Molecule `CC(=O)N1CCN(c2ccc3ncn(CC(=O)N(C)Cc4cc(F)c(C#N)c(F)c4)c(=O)c3c2)CC1` [Example 58, 2-[6-(4-Acetylpiperazin-1-yl)-4-oxoquinazolin-3-yl]-N-[(4-cyano-3,5-difluorophenyl)methyl]-N-methylacetamide] registered an IC50 of 15 nM. In turn, `CC(C)CC(=O)N1CCN(c2ccc3ncn(CC(=O)NCc4ccc(Cl)c(Cl)c4)c(=O)c3c2)CC1` [Example 59, N-[(3,4-Dichlorophenyl)methyl]-2-[6-[4-(3-methylbutanoyl)piperazin-1-yl]-4-oxoquinazolin-3-yl]acetamide] displayed an IC50 of 70 nM.

For the molecule `CCCCC(=O)N1CCN(c2ccc3ncn(CC(=O)NCc4ccc(Cl)c(Cl)c4)c(=O)c3c2)CC1` [Example 60], the IC50 came to 10 nM. `COCC(=O)N1CCN(c2ccc3ncn(CC(=O)NCc4ccc(Cl)c(Cl)c4)c(=O)c3c2)CC1` [Example 61] showed an IC50 of 16 nM. With `O=C(Cn1cnc2ccc(N3CCN(C(=O)C(F)(F)F)CC3)cc2c1=O)NCc1ccc(Cl)c(Cl)c1` [Example 62] the figure was 11 nM. With `O=C(Cn1cnc2ccc(N3CCN(C(=O)C4CCC4)CC3)cc2c1=O)NCc1ccc(Cl)c(Cl)c1` [Example 63], the midpoint of inhibition, the IC50, lay at 11 nM.

`O=C(Cn1cnc2ccc(N3CCN(C(=O)C4CCCC4)CC3)cc2c1=O)NCc1ccc(Cl)c(Cl)c1` [Example 64] showed an IC50 of 4 nM. In turn, `O=C(Cn1cnc2ccc(N3CCN(C(=O)C4CCCCC4)CC3)cc2c1=O)NCc1ccc(Cl)c(Cl)c1` [Example 65] showed an IC50 of 10 nM.

In the case of `O=C(Cn1cnc2ccc(N3CCN(C(=O)C4CCOCC4)CC3)cc2c1=O)NCc1ccc(Cl)c(Cl)c1` [Example 66], half-maximal inhibition (IC50) required 190 nM. The value for `O=C(Cn1cnc2ccc(N3CCN(C(=O)c4ccno4)CC3)cc2c1=O)NCc1ccc(Cl)c(Cl)c1` [Example 67] was 15 nM; that for `CCC(=O)N1CCN(c2ccc3ncn(CC(=O)N(C)Cc4ccc(Cl)c(Cl)c4)c(=O)c3c2)CC1` [Example 68] was 4 nM; that for `CC(C)C(=O)N1CCN(c2ccc3ncn(CC(=O)N(C)Cc4ccc(Cl)c(Cl)c4)c(=O)c3c2)CC1` [Example 69] was 3 nM. Molecule `NC1(C(=O)N2CCN(c3ccc4ncn(CC(=O)NCc5ccc(Cl)c(Cl)c5)c(=O)c4c3)CC2)COC1` [Example 70, 2-[6-[4-(3-Aminooxetane-3-carbonyl)piperazin-1-yl]-4-oxoquinazolin-3-yl]-N-[(3,4-dichlorophenyl)methyl]acetamide] had an IC50 of 318 nM. In turn, `NS(=O)(=O)CC(=O)N1CCN(c2ccc3ncn(CC(=O)NCc4ccc(Cl)c(Cl)c4)c(=O)c3c2)CC1` [Example 71] showed an IC50 of 26 nM. `CN(Cc1ccc(Cl)c(Cl)c1)C(=O)Cn1cnc2ccc(N3CCN(C(=O)C4CCC4)CC3)cc2c1=O` [Example 73]: the IC50 amounted to 6 nM. For the molecule `CN(Cc1ccc(Cl)c(Cl)c1)C(=O)Cn1cnc2ccc(N3CCN(C(=O)C4CC(F)C4)CC3)cc2c1=O` (stereo not shown) [Example 74], the IC50 stood at 7 nM. The molecule `CN(Cc1ccc(Cl)c(Cl)c1)C(=O)Cn1cnc2ccc(N3CCN(C(=O)C4CC(F)(F)C4)CC3)cc2c1=O` [Example 75] showed an IC50 of 5 nM. The molecule `CN(Cc1ccc(Cl)c(Cl)c1)C(=O)Cn1cnc2ccc(N3CCN(C(=O)C4(C(F)(F)F)CCC4)CC3)cc2c1=O` [Example 76] showed a concentration for half-maximal inhibition (IC50) of 10 nM. Molecule `CN(Cc1ccc(Cl)c(Cl)c1)C(=O)Cn1cnc2ccc(N3CCN(C(=O)C4CC(Cl)C4)CC3)cc2c1=O` (stereo not shown) [Example 77] had an IC50 of 3 nM. As to `COC1CC(C(=O)N2CCN(c3ccc4ncn(CC(=O)N(C)Cc5ccc(Cl)c(Cl)c5)c(=O)c4c3)CC2)C1` (stereo not shown) [Example 78], the IC50 was 9 nM. The value for `CN(Cc1ccc(Cl)c(Cl)c1)C(=O)Cn1cnc2ccc(N3CCN(C(=O)C4COC4)CC3)cc2c1=O` [Example 79] was 10 nM; that for `CN(Cc1ccc(Cl)c(Cl)c1)C(=O)Cn1cnc2ccc(N3CCN(C(=O)C4(C)COC4)CC3)cc2c1=O` [Example 80] was 12 nM; that for `CC(=O)N1CC(C(=O)N2CCN(c3ccc4ncn(CC(=O)N(C)Cc5ccc(Cl)c(Cl)c5)c(=O)c4c3)CC2)C1` [Example 81] was 73 nM.

As for `CC(C)NC(=O)N1CCN(c2ccc3ncn(CC(=O)NCc4ccc(Cl)c(Cl)c4)c(=O)c3c2)CC1` [Example 82, 4-[3-[2-[(3,4-Dichlorophenyl)methylamino]-2-oxoethyl]-4-oxoquinazolin-6-yl]-N-propan-2-ylpiperazine-1-carboxamide], inhibition was half-maximal at 43 nM (IC50). `O=C(Cn1cnc2ccc(N3CCN(C(=O)NC4CC4)CC3)cc2c1=O)NCc1ccc(Cl)c(Cl)c1` [Example 83] had an IC50 of 30 nM.

`O=C(Cn1cnc2ccc(N3CCN(C(=O)NC4CCCC4)CC3)cc2c1=O)NCc1ccc(Cl)c(Cl)c1` [Example 84]: half-maximal inhibition (IC50) required 2 nM. In the case of `COCCNC(=O)N1CCN(c2ccc3ncn(CC(=O)NCc4ccc(Cl)c(Cl)c4)c(=O)c3c2)CC1` [Example 85], half-maximal inhibition (IC50) was put at 61 nM. As for `Cc1noc(C)c1NC(=O)N1CCN(c2ccc3ncn(CC(=O)NCc4ccc(Cl)c(Cl)c4)c(=O)c3c2)CC1` [Example 86], 133 nM corresponded to half-maximal inhibition (IC50). Regarding `O=C(Cn1cnc2ccc(N3CCN(C(=O)Nc4cccnc4)CC3)cc2c1=O)NCc1ccc(Cl)c(Cl)c1` [Example 87], half-maximal inhibition (IC50) required 76 nM. The value for `CS(=O)(=O)N1CCN(c2ccc3ncn(CC(=O)NCc4ccc(Cl)c(Cl)c4)c(=O)c3c2)CC1` [Example 88, N-[(3,4-Dichlorophenyl)methyl]-2-[6-(4-methylsulfonylpiperazin-1-yl)-4-oxoquinazolin-3-yl]acetamide] was 88 nM; that for `O=C(Cn1cnc2ccc(N3CCN(S(=O)(=O)C4CCCC4)CC3)cc2c1=O)NCc1ccc(Cl)c(Cl)c1` [Example 89] was 20 nM. On to `O=C(Cn1cnc2ccc(N3CCN(S(=O)(=O)C4CCCCC4)CC3)cc2c1=O)NCc1ccc(Cl)c(Cl)c1` [Example 90], for which the IC50 came to 35 nM. Take `CN(Cc1ccc(Cl)c(Cl)c1)C(=O)Cn1cnc2ccc(N3CCN(S(=O)(=O)C4CC4)CC3)cc2c1=O` [Example 91]: it took 30 nM to reach half-maximal inhibition (IC50). The value for `CN(Cc1ccc(Cl)c(Cl)c1)C(=O)Cn1cnc2ccc(N3CCN(S(=O)(=O)CC4CCC4)CC3)cc2c1=O` [Example 92] was 7 nM; that for `COC(=O)CN1CCN(c2ccc3ncn(CC(=O)NCc4ccc(Cl)c(Cl)c4)c(=O)c3c2)CC1` [Example 93, Methyl 2-[4-[3-[2-[(3,4-dichlorophenyl)methylamino]-2-oxoethyl]-4-oxoquinazolin-6-yl]piperazin-1-yl]acetate] was 29 nM.

`O=C(Cn1cnc2ccc(N3CCN(CCO)CC3)cc2c1=O)NCc1ccc(Cl)c(Cl)c1` [Example 94, N-[(3,4-Dichlorophenyl)methyl]-2-[6-[4-(2-hydroxyethyl)piperazin-1-yl]-4-oxoquinazolin-3-yl]acetamide] had an IC50 of 67 nM. Against the preceding molecule, the IC50 is about 2.3-fold higher. The value for `O=C(Cn1cnc2ccc(N3CCN(CC(O)CO)CC3)cc2c1=O)NCc1ccc(Cl)c(Cl)c1` (stereo not shown) [Example 95] was 68 nM; that for `O=C(Cn1cnc2ccc(N3CCN(CC4CCC4)CC3)cc2c1=O)NCc1ccc(Cl)c(Cl)c1` [Example 96] was 11 nM.

These data come from patent US10676446B2, “Bicyclic quinazolinone derivatives” (Hoffmann-La Roche Inc., priority 2015, dated 2020).
